Results: US20240279281A1, “Peptide Inhibitors of Interleukin-23 Receptor” (Janssen Pharmaceutica NV, priority 2023, published 2024)
Where a name gives a salt, the structure may show the parent alone. Read-outs that look alike come from different tables or passages of the source. One block for each molecule: values may come before it. Starred links: 1 amine or outer side, 2 acyl side, 3 side chain; linkers in the order of their positions; H or OH if unused. Positions of bridges follow the written chain, without caps; N, C: chain ends. Non-standard residues stand in square brackets, D forms with d. Residues, ends and D or L forms follow the SMILES beside them. Groups on a side chain read outwards from the residue. Primed or numbered codes have the meaning given here. *: point of attachment. AEF(G) = 2-amino-3-(4-(2-guanidinoethoxy)phenyl)propanoic acid, N=C(N)NCCOc1ccc(C[C@H](N[*:1])C(=O)[*:2])cc1; 6Br2Nal = 2-amino-3-(6-bromonaphthalen-2-yl)propanoic acid, O=C([C@H](Cc1ccc2cc(Br)ccc2c1)N[*:1])[*:2]; X22 = CN(CCOCCOCC(=O)N(C)CCOCCOCC(=O)*)C(=O)CC[C@@H](C(=O)O)N(C)C(=O)CCCCCCCCCCCCCCCCCc1nnn[nH]1; Trp(7-(3-AcNH-Ph)) = CC(=O)Nc1cccc(-c2cccc3c(C[C@H](N)C(=O)O)c[nH]c23)c1; PEG2NMePEG2NMegENMeCl8Tetrazole = not defined here; X12 = O=C([C@H](Cc1ccc2cc(F)ccc2c1)N[*:1])[*:2]; 2Nal(6-OH) = N[C@@H](Cc1ccc2cc(O)ccc2c1)C(=O)O; Trp(7-Me) = Cc1cccc2c(C[C@H](N)C(=O)O)c[nH]c12; Hexanoyl(6-NMe3+) = C[N+](C)(C)CCCCCC(=O)*; 3Pal(5-Me) = Cc1cncc(C[C@H](N)C(=O)O)c1; γGlu = O=C(O)[C@H](CCC(=O)[*:2])N[*:1]; AEF = NCCOc1ccc(C[C@H](N)C(=O)O)cc1; 3Pal = N[C@@H](Cc1cccnc1)C(=O)O; Pen = CC(C)(S)[C@H](N)C(=O)O; PEG2′ = not defined here; Thp = NC1(C(=O)O)CCOCC1; Me2NCH2CH2 = CN(C)CC*; Tfa = O=C(C(F)(F)F)*; Sar = CNCC(=O)O

Columns and labels:
IL-23R = target: T1, IL-23R (Homo sapiens, UniProt Q5VWK5); experiment: IL23R Reporter Assay; type: cell-based
T1 construct: host or cells: HEK293
T1 sequence (Q5VWK5 24-629): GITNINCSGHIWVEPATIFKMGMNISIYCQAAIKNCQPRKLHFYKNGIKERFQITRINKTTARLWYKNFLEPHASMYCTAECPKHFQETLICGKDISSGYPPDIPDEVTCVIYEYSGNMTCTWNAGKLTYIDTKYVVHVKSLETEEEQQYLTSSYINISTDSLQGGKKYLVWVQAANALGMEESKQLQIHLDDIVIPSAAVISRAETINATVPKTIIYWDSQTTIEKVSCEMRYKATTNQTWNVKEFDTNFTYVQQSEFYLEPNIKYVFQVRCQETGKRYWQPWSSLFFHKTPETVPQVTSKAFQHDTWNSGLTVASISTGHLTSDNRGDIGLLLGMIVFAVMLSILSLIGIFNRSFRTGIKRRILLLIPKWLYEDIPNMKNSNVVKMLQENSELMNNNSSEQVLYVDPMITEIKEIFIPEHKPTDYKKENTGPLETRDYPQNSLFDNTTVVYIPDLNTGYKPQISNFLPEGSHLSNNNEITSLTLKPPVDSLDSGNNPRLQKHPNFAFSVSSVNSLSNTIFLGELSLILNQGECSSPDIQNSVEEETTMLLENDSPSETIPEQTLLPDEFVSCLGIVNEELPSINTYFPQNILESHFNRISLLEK
Experimental: Compounds were serially diluted in 100% (v/v) DMSO) and plated using an Echo acoustic dispenser (Labcyte) into 1536-well non-treated black assay plates (Corning #9146). […] After 5 h at 37° C., 5% CO2, 95% relative humidity, cells were placed at 20° C. and treated with BioGlo reagent (Promega) according to the Manufacturer's instructions. Luminescence was measured on a Pherastar FSX (BMG LabTech).

[1] = target: T2, IL-23-stimulated phosphorylated STAT3 in peripheral blood mononuclear cells (PBMCs) (Homo sapiens, UniProt Q5VWK5); experiment: PBMC pSTAT3 Assay; type: cell-based
T2 sequence (Q5VWK5 24-629): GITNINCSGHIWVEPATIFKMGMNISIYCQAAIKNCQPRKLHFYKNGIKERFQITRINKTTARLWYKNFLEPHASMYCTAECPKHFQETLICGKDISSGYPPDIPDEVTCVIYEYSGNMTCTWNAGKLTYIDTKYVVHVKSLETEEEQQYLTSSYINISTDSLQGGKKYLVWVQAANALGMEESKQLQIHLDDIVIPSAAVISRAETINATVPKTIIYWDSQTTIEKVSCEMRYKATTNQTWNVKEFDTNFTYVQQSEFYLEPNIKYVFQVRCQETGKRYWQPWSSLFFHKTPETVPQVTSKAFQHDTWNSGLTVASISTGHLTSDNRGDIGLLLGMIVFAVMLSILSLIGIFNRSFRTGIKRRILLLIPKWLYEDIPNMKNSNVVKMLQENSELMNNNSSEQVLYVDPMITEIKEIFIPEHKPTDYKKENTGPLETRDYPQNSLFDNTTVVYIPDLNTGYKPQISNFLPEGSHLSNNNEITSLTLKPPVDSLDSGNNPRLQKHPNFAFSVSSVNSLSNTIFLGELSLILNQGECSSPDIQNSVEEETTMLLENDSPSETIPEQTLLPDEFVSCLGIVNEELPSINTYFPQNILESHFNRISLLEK
Method in brief: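 Anti-CD3/IL-1β-expanded donor PBMCs (day 4) starved ~4 h in RPMI-0.1% BSA, preincubated 30 min with peptide, then stimulated 30 min at 37° C with 5 ng/mL IL-23 (final). Lysates read for phospho-STAT3 by Meso Scale phospho-STAT panel immunoassay.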

[2] = disulfide bond, 20-membered ring, I2/MeOH, 20% MeCN/H2O
[3] = target: T3, interleukin-23 receptor (IL-23R) (UniProt Q5VWK5 24-629, limits assumed); experiment: cell-based or functional assay
T3 sequence (looked up): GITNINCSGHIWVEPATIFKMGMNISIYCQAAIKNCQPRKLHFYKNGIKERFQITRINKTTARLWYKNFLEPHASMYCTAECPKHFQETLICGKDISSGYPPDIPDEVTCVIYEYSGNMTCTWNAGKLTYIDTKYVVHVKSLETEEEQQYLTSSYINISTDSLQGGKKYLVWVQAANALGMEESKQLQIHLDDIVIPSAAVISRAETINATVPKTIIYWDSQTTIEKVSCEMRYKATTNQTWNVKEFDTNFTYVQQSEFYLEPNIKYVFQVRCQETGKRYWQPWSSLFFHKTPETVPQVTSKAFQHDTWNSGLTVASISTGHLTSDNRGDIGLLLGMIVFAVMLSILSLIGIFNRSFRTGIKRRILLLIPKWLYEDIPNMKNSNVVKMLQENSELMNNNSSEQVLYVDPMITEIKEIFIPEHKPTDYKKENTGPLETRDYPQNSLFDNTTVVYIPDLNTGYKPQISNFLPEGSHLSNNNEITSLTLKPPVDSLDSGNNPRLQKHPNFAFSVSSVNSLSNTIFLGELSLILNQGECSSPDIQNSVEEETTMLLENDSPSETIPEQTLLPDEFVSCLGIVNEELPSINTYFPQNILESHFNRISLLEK

[4] = HEK293 cells containing IL-23R, IL-12Rβ1 and STAT-inducible luciferase reporter, 10 ng/mL IL-23, 5 h, read-out: IC50
[5] = PBMCs from healthy donors, IL-23 5 ng/mL, 30 minutes, read-out: PBMC pSTAT3 IC50

Molecule: Cc1cccc2c(C[C@@H]3NC(=O)[C@H]([C@@H](C)O)NC(=O)[C@H](CC(=O)N(C)C)NC(=O)[C@@H](NC(=O)[C@@H](CCCCNC(=O)CCCCC[N+](C)(C)C)NC(=O)C(F)(F)F)C(C)(C)SSC(C)(C)[C@@H](C(=O)N[C@@H](Cc4ccc(OCCN(C)C)cc4)C(=O)N[C@@H](Cc4ccc5cc(O)ccc5c4)C(=O)NC4(C(=O)N[C@@H](CCC(=O)N(C)C)C(=O)N[C@@H](CC(N)=O)C(=O)N[C@@H](Cc5cccnc5)C(=O)N(C)CC(=O)N(C)C)CCOCC4)NC(=O)[C@H](CCC(=O)N(C)C)NC3=O)c[nH]c12 [SEQ ID NO: 405, CF3CO-k(5cpa)-Pen(3)-N(N(Me)2)-T-7MeW-Q(N(Me)2)-Pen(3)-AEF(N(Me)2)-6OH2Nal-THP-Q(N(Me)2)-N-3Pya-Sar-CON(Me)2] (Tfa-[dK](Hexanoyl(6-NMe3+))[Pen]D(NMe2)T[Trp(7-Me)]E(NMe2)[Pen]Y(Me2NCH2CH2)[2Nal(6-OH)][Thp]E(NMe2)N[3Pal][Sar]-NMe2; disulfide 2-7)
IC50 (IL-23R; [4]): < 10 nM
IC50 [1, 5]: 0.01 to 0.1 nM
ring closure, yield after HPLC ([2]; from CF3CO-dLys(5cpa)-Pen-Asn(NMe2)-Thr-7MeTrp-Gln(NMe2)-Pen-AEF(NMe2)-6OH2Nal-THP-Gln(NMe2)-Asn-3Pya-Sar-NMe2, 0.51 mM): 13.4%

Molecule: CC(=O)NCCCC[C@@H]1NC(=O)[C@H](Cc2c[nH]c3c(C)cccc23)NC(=O)[C@H]([C@@H](C)O)NC(=O)[C@H](CC(N)=O)NC(=O)[C@@H](NC(=O)[C@@H](CCCNC(=N)N)NC(C)=O)C(C)(C)SSC(C)(C)[C@@H](C(=O)N[C@@H](Cc2ccc(OCCN)cc2)C(=O)N[C@@H](Cc2ccc3cc(F)ccc3c2)C(=O)NC2(C(=O)N[C@@H](CCC(=O)O)C(=O)N[C@@H](CC(N)=O)C(=O)N[C@@H](Cc3cccnc3)C(=O)N(C)CC(N)=O)CCOCC2)NC1=O [SEQ ID NO: 407, MeCO-r-Pen(3)-N-T-7MeW-K(Ac)-Pen(3)-AEF-6F2Nal-THP-E-N-3Pya-Sar-CONH2] (Ac-[dR][Pen]NT[Trp(7-Me)]K(Ac)[Pen][AEF][X12][Thp]EN[3Pal][Sar]-NH2; disulfide 2-7)
IC50 (IL-23R; [4]): < 10 nM
IC50 [1, 5]: 0.01 to 0.1 nM
ring closure, yield after HPLC ([2]; from Ac-dArg-Pen-Asn-Thr-7MeTrp-Lys(Ac)-Pen-AEF-6F2Nal-THP-Glu-Asn-3Pya-Sar-NH2, 0.85 mM): 22.1%

Molecule: CC(=O)NCCCC[C@@H]1NC(=O)[C@H](Cc2c[nH]c3c(C)cccc23)NC(=O)[C@H]([C@@H](C)O)NC(=O)[C@H](CC(N)=O)NC(=O)[C@@H](NC(=O)[C@@H](CCCNC(=N)N)NC(C)=O)C(C)(C)SSC(C)(C)[C@@H](C(=O)N[C@@H](Cc2ccc(OCCN)cc2)C(=O)N[C@@H](Cc2ccc3cc(O)ccc3c2)C(=O)NC2(C(=O)N[C@@H](CCC(=O)O)C(=O)N[C@@H](CC(N)=O)C(=O)N[C@@H](Cc3cccnc3)C(=O)N(C)CC(=O)N[C@@H](CCCCNC(=O)COCCOCCN(C)C(=O)COCCOCCN(C)C(=O)CC[C@@H](C(=O)O)N(C)C(=O)CCCCCCCCCCCCCCCCCc3nnn[nH]3)C(N)=O)CCOCC2)NC1=O [SEQ ID NO: 115, MeCO-r-Pen(3)-N-T-7MeW-K(Ac)-Pen(3)-AEF-6OH2Nal-THP-E-N-3Pya-Sar-K(PEG2NMePEG2NMegENMeCl8Tetrazole)-CONH2] (Ac-[dR][Pen]NT[Trp(7-Me)]K(Ac)[Pen][AEF][2Nal(6-OH)][Thp]EN[3Pal][Sar]K(X22)-NH2; disulfide 2-7)
IC50 (IL-23R): 10 to 100 nM
IC50 ([1]; read-out: PBMC pSTAT3 IC50, PBMCs from healthy donors, IL-23 5 ng/mL, 30 minutes): 0.1 to 1 nM
ring closure, yield after HPLC ([2]; from Ac-dArg-Pen-Asn-Thr-7MeTrp-Lys(Ac)-Pen-AEF-6OH2Nal-THP-Glu-Asn-3Pya-Sar-Lys(PEG2NMePEG2NMegENMeCl8Tetrazole)-NH2, 0.503 mM): 8.08%

PBMC pSTAT3 IC50 [3]: > 1 nM
B1: SEQ ID NO: 444 (peptide)
peptide: Ac-[dR][Pen]NT[Trp(7-Me)]K(Ac)[Pen][AEF][6Br2Nal][Thp]EN[Thp]-NH2
modifications: disulfide 2-7 (inferred)

PBMC pSTAT3 IC50 [3]: < 1 nM
B2: SEQ ID NO: 283 (peptide)
peptide: Ac-[Pen]NT[Trp(7-Me)]K(Ac)[Pen][AEF][2Nal(6-OH)][Thp]EN[3Pal][Sar]K([PEG2′-PEG2′-γGlu-C18OH])-NH2
modifications: disulfide 1-6 (inferred)

PBMC pSTAT3 IC50 [3]: < 0.1 nM
B3: SEQ ID NO: 273 (peptide)
peptide: Ac-[Pen]NT[Trp(7-Me)]K(Ac)[Pen][AEF][2Nal(6-OH)][Thp]K([PEG2′-PEG2′-γGlu-C18OH])N[3Pal][Sar]-NH2
modifications: disulfide 1-6 (inferred)

PBMC pSTAT3 IC50 [3]: < 10 pM
B4: SEQ ID NO: 349 (peptide)
peptide: Ac-X[Pen]NT[Trp(7-Me)]K(Ac)[Pen][AEF][2Nal(6-OH)][Thp]EN[3Pal][Sar]-NH2
modifications: disulfide 2-7 (inferred); not fully specified (residue 1); printed as MeCO-k(d)-Pen(3)-N-T-7MeW-K(Ac)-Pen(3)-AEF-6OH2Nal-THP-E-N-3Pya-Sar-CONH2

PBMC pSTAT3 IC50 [3]: < 10 pM
B5: SEQ ID NO: 15 (peptide)
peptide: Ac-[dR][Pen]NT[Trp(7-(3-AcNH-Ph))]K(Ac)[Pen][AEF(G)][2Nal(6-OH)][Thp]EN[3Pal(5-Me)][Sar]-NH2
modifications: disulfide 2-7 (inferred)

PBMC pSTAT3 IC50 [3]: < 1 nM
B6: SEQ ID NO: 115 (peptide)
peptide: Ac-[dR][Pen]NT[Trp(7-Me)]K(Ac)[Pen][AEF][2Nal(6-OH)][Thp]EN[3Pal][Sar]K(PEG2NMePEG2NMegENMeCl8Tetrazole)-NH2
modifications: disulfide 2-7 (inferred); reading uncertain
